Like-named read-outs stand apart in the source and are kept apart here.

A word on the melting point: it is the temperature, or range, at which the solid turns liquid. The term inhibition denotes the drop in the measured response relative to a control, in per cent. High values mean a strong effect, low ones a weak effect.

One series concerns HCV replicon Luc Neo ET. The series is described as follows: Luc Neo ET Replicon assay. The class given is cell-based, Hepatitis C virus. The conditions noted are these: Table 3, titled RdRp enzyme assay results, EC50_Replicon LucneoET, 72 hours with compound, luciferase. The method, boiled down:
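Huh-7-derived Luc Neo ET bicistronic HCV replicon cells (adaptive mutations E1202G, T1280I, K1846T) treated 24 h after seeding with compounds for 72 h, 1% DMSO final, 37 °C. Firefly luciferase luminescence read after lysis; % inhibition from background-corrected RLU relative to untreated signal.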
(Replicon systems follow genome replication, usually without infectious particles.)

Series [1] concerns the target T1, HCV NS5B with a deletion of the 21 C-terminal amino acids (Hepatitis C virus genotype 1b, UniProt Q9WMX2).
T1 construct: purified HCV NS5B with a deletion of the 21 C-terminal amino acids
As to the kind of experiment: HCV NS5B RdRp enzyme assay. The class given is biochemical. The method, then: The assay was performed in a total volume of 20 μl containing 20 mM Tris pH 7.5, 1 mM DTT, 17 U RNasin, 50 mM NaCl, 10% DMSO, 5 mM MgCl2, 0.5 mM each of the 3 NTPs (ATP, CTP, GTP), 86 nM RNA template (341 nt from the 3′ end of HCV minus strand RNA), 50 nM of purified HCV NS5B with a deletion of the 21 C-terminal amino acids and 2 μCi [^3H]UTP (46 Ci.mmol^−1). The reaction mixture was incubated for 2 h at 25-30° C. and the radiolabeled products were precipitated by the addition of 10% TCA. The radioactivity incorporated was quantified by counting in a Wallac scintillation counter. Increasing concentrations of tested compounds were added to the complete RdRp reaction mixture. After a two hour incubation period at 25-30° C., the amount of labeled product was determined as above. Two types of control reactions were done: a negative control corresponding to the complete mixture without enzyme and a positive control with enzyme but without compounds. In each experiment, test and control samples are in duplicate.
The level of activity with each compound concentration was expressed with the formulae: […]
The IC50 value was calculated as the compound concentration reducing polymerase activity by 50%.

A further series has as its target T2, HCV NS5B genotype 1b (Hepatitis C virus genotype 1b, UniProt Q9WMX2).
T2 construct: The protein was expressed with a 21 amino acid C-terminal deletion to remove transmembrane domain; expressed in transfected cells; host or cells: Huh-7
As to the kind of experiment: 3D-SCREEN assay (NS5B 3D-Screen platform, luciferase reporter gene). Format: cell-based. In short, it runs like this: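 Huh-7 cells transiently co-transfected with NS5BΔ21/Gal4-DBD, 3D-Sensor peptide I4/VP16 and firefly luciferase reporter. Compounds added 2 h after seeding, 1% DMSO final, 24 h incubation. Luciferase luminescence read; % inhibition relative to no-compound signal.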
A general note: A reporter such as luciferase makes a cellular process visible.

[2] abbreviates: EC50_3DS_NS5B, Table 2, titled Replicon assay results.

With `Cc1ccc(N2C(=O)C(O)=C(C(=O)c3ccc(C(C)C)cc3)C2c2ccc(C(F)(F)F)cc2)nn1` (stereo not shown) [Example 63, 3-hydroxy-4-(4-isopropyl-benzoyl)-1-(6-methyl-pyridazin-3-yl)-5-(4-trifluoromethyl-phenyl)-1,5-dihydro-pyrrol-2-one], the melting point lay within 268 to 270 °C. In addition, the EC50 with HCV replicon Luc Neo ET (Hepatitis C virus, 72 h) was found to be 100 nM. In series [1], this compound came in with an inhibition at 10 µM of 50%. Besides, on HCV NS5B genotype 1b (EC50_3DS_NS5B, Table 1, 3D-SCREEN assay results, Huh-7 cells, 24 hours with compound, firefly luciferase reporter), the EC50 was 60 nM.

In the case of `Cc1ccc(N2C(=O)C(O)=C(C(=O)c3ccc(CC(C)C)cc3)C2c2ccc(OC(F)(F)F)cc2)nn1` (stereo not shown) [Example 131, 3-hydroxy-4-(4-isobutyl-benzoyl)-1-(6-methyl-pyridazin-3-yl)-5-(4-trifluoromethoxy-phenyl)-1,5-dihydro-pyrrol-2-one], the melting point was 260 °C. For the same compound, in the series on HCV replicon Luc Neo ET (Hepatitis C virus, 72 h), the EC50 is less than 10000 nM. Moreover, the EC50 on HCV NS5B genotype 1b (setting [2]) was less than 1000 nM.

`Cc1ccc(N2C(=O)C(Cl)=C(C(=O)c3ccc(C(C)C)cc3)C2c2ccc(OC(F)(F)F)cc2)nn1` (stereo not shown) [Example 138, 3-chloro-4-(4-isopropyl-benzoyl)-1-(6-methyl-pyridazin-3-yl)-5-(4-trifluoromethoxy-phenyl)-1,5-dihydro-pyrrol-2-one] gave a melting point of 293 °C. The EC50 with HCV replicon Luc Neo ET (Hepatitis C virus, 72 h) is less than 10000 nM. The EC50 at HCV NS5B genotype 1b (setting [2]) is less than 10000 nM.

On to `C=C(C)c1ccc(C(=O)C2=C(O)C(=O)N(c3ccc(C)nn3)C2c2ccc(OC(F)(F)F)cc2)cc1` (stereo not shown) [Example 142, 3-hydroxy-4-(4-isopropenyl-benzoyl)-1-(6-methyl-pyridazin-3-yl)-5-(4-trifluoromethoxy-phenyl)-1,5-dihydro-pyrrol-2-one], for which the melting point turned out to be 253 °C. In addition, the EC50 in the series with HCV replicon Luc Neo ET (Hepatitis C virus, 72 h) is less than 10000 nM. Also, the EC50 on HCV NS5B genotype 1b (setting [2]) is less than 1000 nM.

`Cc1ccc(N2C(=O)C(O)=C(C(=O)c3ccc(C(C)C)cc3)C2c2ccc(OC3CCOCC3)cc2)nn1` (stereo not shown) [Example 143, 3-hydroxy-4-(4-isopropyl-benzoyl)-1-(6-methyl-pyridazin-3-yl)-5-[4-(tetrahydro-pyran-4-yloxy)-phenyl]-1,5-dihydro-pyrrol-2-one] had a melting point of 275 °C. In addition, the EC50 in the series on HCV replicon Luc Neo ET (Hepatitis C virus, 72 h) was less than 10000 nM. The compound further had an EC50 at HCV NS5B genotype 1b (setting [2]) of less than 10000 nM.

For `CC(C)c1ccc(C(=O)C2=C(O)C(=O)N(c3ccc(O)nn3)C2c2ccc(OC(F)(F)F)cc2)cc1` (stereo not shown) [Example 159, 3-hydroxy-1-(6-hydroxy-pyridazin-3-yl)-4-(4-isopropyl-benzoyl)-5-(4-trifluoromethoxy-phenyl)-1,5-dihydro-pyrrol-2-one], the melting point was found to be 255 °C. Besides, in the series with HCV replicon Luc Neo ET (Hepatitis C virus, 72 h), the EC50 was less than 10000 nM. The EC50 at HCV NS5B genotype 1b (setting [2]) is less than 1000 nM.

In turn, `C=C(C)c1ccc(C2C(C(=O)c3ccc(C(C)C)cc3)=C(O)C(=O)N2c2ccc(C)nn2)cc1` (stereo not shown) [Example 160, 3-hydroxy-5-(4-isopropenyl-phenyl)-4-(4-isopropyl-benzoyl)-1-(6-methyl-pyridazin-3-yl)-1,5-dihydro-pyrrol-2-one] had a melting point of 274 °C. Moreover, the EC50 in the series with HCV replicon Luc Neo ET (Hepatitis C virus, 72 h) was less than 10000 nM. For the same compound, at HCV NS5B genotype 1b (setting [2]), the EC50 is less than 1000 nM.

For `CC(C)c1ccc(C(=O)C2=C(O)C(=O)N(c3ccc(OCc4ccccc4)nn3)C2c2ccc(OC(F)(F)F)cc2)cc1` (stereo not shown) [Example 161, 1-(6-benzyloxy-pyridazin-3-yl)-3-hydroxy-4-(4-isopropyl-benzoyl)-5-(4-trifluoromethoxy-phenyl)-1,5-dihydro-pyrrol-2-one], the melting point came to 269 °C. In the series on HCV replicon Luc Neo ET (Hepatitis C virus, 72 h), the EC50 is less than 10000 nM. For the same compound, at HCV NS5B genotype 1b (setting [2]), the EC50 was less than 1000 nM.

`Cc1ccc(N2C(=O)C(O)=C(C(=O)c3ccc(C(C)C)cc3)C2c2ccc(OC(C)C)nc2)nn1` (stereo not shown) [Example 165, 3-hydroxy-5-(6-isopropoxy-pyridin-3-yl)-4-(4-isopropyl-benzoyl)-1-(6-methyl-pyridazin-3-yl)-1,5-dihydro-pyrrol-2-one] had a melting point of 282 °C. Further, the EC50 with HCV replicon Luc Neo ET (Hepatitis C virus, 72 h) is less than 1000 nM. Moreover, the EC50 on HCV NS5B genotype 1b (setting [2]) is less than 1000 nM.

`Cc1ccc(N2C(=O)C(O)=C(C(=O)c3ccc(C(C)C)cc3)C2c2ccc(OC(C)C)nc2)nn1.Cl` (stereo not shown) [Example 167, 3-hydroxy-5-(6-isopropoxy-pyridin-3-yl)-4-(4-isopropyl-benzoyl)-1-(6-methyl-pyridazin-3-yl)-1,5-dihydro-pyrrol-2-one; hydrochloride] registered a melting point of 280 °C. In addition, the EC50 in the series with HCV replicon Luc Neo ET is less than 1000 nM. Also, the EC50 on HCV NS5B genotype 1b (read-out: EC50_3DS_NS5B, Table 2, titled Replicon assay results) is less than 1000 nM.

In turn, `Cc1ccc(N2C(=O)C(O)=C(C(=O)c3ccc(C(C)C)cc3)[C@H]2c2ccc(OC(F)(F)F)cc2)nn1` [Example 188, 3-hydroxy-4-(4-isopropyl-benzoyl)-1-(6-methyl-pyridazin-3-yl)-5(R)-(4-trifluoromethoxy-phenyl)-1,5-dihydro-pyrrol-2-one] displayed a melting point of 217 °C. The EC50 with HCV replicon Luc Neo ET (Hepatitis C virus, 72 h) was less than 100 nM. On HCV NS5B genotype 1b (setting [2]), the EC50 is less than 100 nM.

Compound `Cc1ccc(N2C(=O)C(O)=C(C(=O)c3ccc(C(C)C)cc3)[C@@H]2c2ccc(OC(F)(F)F)cc2)nn1` [Example 189, 3-hydroxy-4-(4-isopropyl-benzoyl)-1-(6-methyl-pyridazin-3-yl)-5(S)-(4-trifluoromethoxy-phenyl)-1,5-dihydro-pyrrol-2-one] registered a melting point of 221 °C. Also, in the series with HCV replicon Luc Neo ET (Hepatitis C virus, 72 h), the EC50 was less than 10000 nM. Also, at HCV NS5B genotype 1b (setting [2]), the EC50 was less than 10000 nM.

`Cc1ccc(N2C(=O)C(O)=C(C(=O)c3ccc(C(C)C)cc3)[C@H]2c2ccc(C(F)(F)F)cc2)nn1` [Example 191, 3-hydroxy-4-(4-isopropyl-benzoyl)-1-(6-methyl-pyridazin-3-yl)-5(R)-(4-trifluoromethyl-phenyl)-1,5-dihydro-pyrrol-2-one] showed a melting point of 251 °C. In addition, the EC50 in the series with HCV replicon Luc Neo ET (Hepatitis C virus, 72 h) was less than 100 nM. Also, the EC50 on HCV NS5B genotype 1b (setting [2]) is less than 100 nM.

Consider `Cc1ccc(C(=O)C2=C(O)C(=O)N(c3ccc(C)nn3)[C@@H]2c2ccc(OC(F)(F)F)cc2)cc1` [Example 199, 3-hydroxy-4-(4-methyl-benzoyl)-1-(6-methyl-pyridazin-3-yl)-5(R)-(4-trifluoromethoxy-phenyl)-1,5-dihydro-pyrrol-2-one], for which the melting point was 215 °C. Further, in the series on HCV replicon Luc Neo ET (Hepatitis C virus, 72 h), the EC50 is less than 1000 nM. For the same compound, on HCV NS5B genotype 1b (setting [2]), the EC50 was less than 1000 nM.

Values taken from patent US20120128630A1, “1-(6 MEMBERS AZO-HETEROCYCLIC)-PYRROLIN-2-ONE COMPOUNDS AS INHIBITORS OF HEPATITIS C NS5B POLYMERASE, THE PHARAMACEUTICAL COMPOSITION THEREOF AND THEIR THERAPEUTIC USE” (priority 2009, published 2012).
